Tests used:
[1] = tested on: vessel development of the FLK1-GFP transgenic danio rerio; test: Inhibition test on vascular development of Danio rerio; type: in vivo; conditions: for inhibition at 0.1 µM / inhibition at 1 µM / inhibition at 5 µM / inhibition at 10 µM / inhibition at 20 µM / inhibition at 40 µM / inhibition at 100 µM: Danio rerio, after 24 hours, n = 5, read-out: inhibition rate on the development of vertebral vessel; for inhibition at 0.1 µM: 100 nM; for inhibition effect on the vessel development of the danio rerio (in words): Table 1 and FIG. 7
Description: Female fish can spawn 200-300 […], and the fertilization and embryonic development processes are conducted in vitro. They can grow up within 24 hours, and the embryo is transparent, which is suitable for observing the change of intracorporal organs and tissues. These characteristics make the danio rerio become to be one of the five fish laboratory animals accepted by the international organization for standardization. Currently, the danio rerio is widely used in human disease studies, especially used in cardiovascular system studies. The danio rerio can be used for screening the influence of small molecular compounds on angiogenesis. Experimental Method: This experiment uses FLK1-GFP transgenic danio rerio as an animal model which is generally used for screening the influence of compounds on angiogenesis. Vessel can be in vivo observed under fluorescence microscope (Suk-Won Jin, 2005, Development). The selected embryo of the postnatal FLK1-GFP transgenic danio rerio was placed into a culture dish and incubated for 3-5 days in an incubator at 28° C. […] Examine the developmental condition of the vertebral vessel after 24 hours and take photo by use of the fluorescence microscope.

VEGFR2 = target: T1, VEGFR2 (Homo sapiens, UniProt P35968); test: In vitro inhibition test on VEGFR2 in HUVECs (anti-phosphorylated VEGFR2 blot); type: cell-based; conditions: 10 nM, 100 nM and 1 μM, 50 ng/ml VEGF
T1 construct: endogenous in cells; host or cells: primary HUVECs P3-P5
T1 sequence (P35968 20-1356): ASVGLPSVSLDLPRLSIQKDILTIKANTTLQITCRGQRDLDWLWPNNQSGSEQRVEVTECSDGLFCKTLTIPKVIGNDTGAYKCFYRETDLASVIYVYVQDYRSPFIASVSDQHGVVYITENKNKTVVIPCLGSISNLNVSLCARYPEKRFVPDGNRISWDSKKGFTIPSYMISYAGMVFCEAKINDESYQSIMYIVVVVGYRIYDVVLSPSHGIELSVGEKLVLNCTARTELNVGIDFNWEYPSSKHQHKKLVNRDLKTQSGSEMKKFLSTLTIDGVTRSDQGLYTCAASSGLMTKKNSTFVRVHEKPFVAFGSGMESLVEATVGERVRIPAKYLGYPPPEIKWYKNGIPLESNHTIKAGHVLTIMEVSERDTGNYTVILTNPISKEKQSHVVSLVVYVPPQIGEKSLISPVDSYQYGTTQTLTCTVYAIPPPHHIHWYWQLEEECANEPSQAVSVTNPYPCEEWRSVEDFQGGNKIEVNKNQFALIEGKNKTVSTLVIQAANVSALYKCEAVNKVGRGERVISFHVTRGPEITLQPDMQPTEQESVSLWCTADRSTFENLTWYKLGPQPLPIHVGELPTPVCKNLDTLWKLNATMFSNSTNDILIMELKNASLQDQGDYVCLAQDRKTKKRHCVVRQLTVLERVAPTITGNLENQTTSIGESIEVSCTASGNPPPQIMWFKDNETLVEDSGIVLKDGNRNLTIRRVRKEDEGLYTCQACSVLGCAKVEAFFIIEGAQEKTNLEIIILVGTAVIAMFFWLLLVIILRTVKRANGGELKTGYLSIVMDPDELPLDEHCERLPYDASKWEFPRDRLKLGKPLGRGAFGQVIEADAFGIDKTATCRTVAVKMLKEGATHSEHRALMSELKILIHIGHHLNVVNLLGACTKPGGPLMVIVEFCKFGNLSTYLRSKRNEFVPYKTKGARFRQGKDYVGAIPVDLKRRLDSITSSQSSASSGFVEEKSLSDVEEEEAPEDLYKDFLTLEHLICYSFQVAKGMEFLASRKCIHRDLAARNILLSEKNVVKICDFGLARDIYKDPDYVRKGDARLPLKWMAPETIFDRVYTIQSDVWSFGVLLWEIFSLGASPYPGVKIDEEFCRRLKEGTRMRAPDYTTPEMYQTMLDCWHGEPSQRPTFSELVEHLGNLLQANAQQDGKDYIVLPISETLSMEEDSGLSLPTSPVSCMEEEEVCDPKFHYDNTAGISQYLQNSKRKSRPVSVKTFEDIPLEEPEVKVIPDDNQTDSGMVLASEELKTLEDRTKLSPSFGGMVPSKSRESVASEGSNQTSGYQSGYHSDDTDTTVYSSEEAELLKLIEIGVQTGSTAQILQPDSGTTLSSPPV
Description: The experimental method of detecting the inhibition of the compounds of the present invention on VEGFR2 kinase is as follows:
1) The primary cultured human umbilical vein endothelial cells (HUVECs) P3-P5 were transferred to 6 well plate, 2×10^5 cells per well;
2) compounds 2-1, 2-2 and 2-4 of the present invention (the concentrations are 10 nM, 100 nM and 1 μM for each compound) were added when the cells grow to 70-80%, VEGF was a control, incubation for 30 min;
3) 50 ng/ml VEGF (cell Signaling company, US) was added, stimulating for 10 min;
4) nondenature lysis buffer was added to terminate the reaction, and cell lysis buffer was collected to carry out protein quantification;
5) SDS-PAGE electrophoresis, transfer to nitrocellulose membrane, the membrane was cut off and sealed in phosphate tween buffer, TTBS buffer (Tris-buffered saline 0.01% Tween 20, cell Signaling company, US, PH8.0) formulated from 5% skimmed milk for 2 hours; 6) wash the membrane, seal at 4° C. overnight by use of an anti-phosphorylated VEGFR2 antibody (1:1000 dilution, cell Signaling company, US); 7) on the second day after washing membrane, horse radish peroxidase marked goat anti-rabbit second antibody (cell Signaling company, US) was incubated with the membrane at room temperature for 1 hour; 8) develop with chemiluminescence kit (Millipore company) after washing membrane, and take photos.

VEGFR2 (KDR) = target: T2, VEGFR2 (KDR) (Homo sapiens, UniProt P35968); test: Kinase inhibition dosage effect, KDR; type: biochemical; conditions: for IC50: [ATP] 80 μM, 3 hr; for Hill KDR: dose-effect curve fit
T2 construct: purchased Invitrogen
T2 sequence (P35968 20-1356, species assumed): as the sequence (P35968 20-1356) above

AURORA-B = target: T3, AURORA-B (Homo sapiens, UniProt Q96GD4); test: Inhibition specificity, AURORA-B; type: biochemical; conditions: 5000 nM, average of two tests; read-out: Average Inhibition Rate (%) AURORA-B
T3 construct: purchased CARNA
T3 sequence (Q96GD4 whole entry): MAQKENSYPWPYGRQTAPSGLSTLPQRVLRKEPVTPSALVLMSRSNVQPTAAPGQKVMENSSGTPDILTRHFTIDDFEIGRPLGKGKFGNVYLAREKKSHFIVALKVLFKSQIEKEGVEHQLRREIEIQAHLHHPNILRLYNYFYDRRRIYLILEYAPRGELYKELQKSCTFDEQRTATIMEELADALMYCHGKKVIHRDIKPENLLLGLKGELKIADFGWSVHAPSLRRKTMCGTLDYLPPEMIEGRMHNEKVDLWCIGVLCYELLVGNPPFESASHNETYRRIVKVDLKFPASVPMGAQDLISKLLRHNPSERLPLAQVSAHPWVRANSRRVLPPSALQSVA

BRAF = target: T4, BRAF (Homo sapiens, UniProt P15056); test: Inhibition specificity, BRAF; type: biochemical; conditions: 5000 nM, average of two tests; read-out: Average Inhibition Rate (%) BRAF
T4 construct: purchased UPSTATE
T4 sequence (P15056 whole entry, species assumed): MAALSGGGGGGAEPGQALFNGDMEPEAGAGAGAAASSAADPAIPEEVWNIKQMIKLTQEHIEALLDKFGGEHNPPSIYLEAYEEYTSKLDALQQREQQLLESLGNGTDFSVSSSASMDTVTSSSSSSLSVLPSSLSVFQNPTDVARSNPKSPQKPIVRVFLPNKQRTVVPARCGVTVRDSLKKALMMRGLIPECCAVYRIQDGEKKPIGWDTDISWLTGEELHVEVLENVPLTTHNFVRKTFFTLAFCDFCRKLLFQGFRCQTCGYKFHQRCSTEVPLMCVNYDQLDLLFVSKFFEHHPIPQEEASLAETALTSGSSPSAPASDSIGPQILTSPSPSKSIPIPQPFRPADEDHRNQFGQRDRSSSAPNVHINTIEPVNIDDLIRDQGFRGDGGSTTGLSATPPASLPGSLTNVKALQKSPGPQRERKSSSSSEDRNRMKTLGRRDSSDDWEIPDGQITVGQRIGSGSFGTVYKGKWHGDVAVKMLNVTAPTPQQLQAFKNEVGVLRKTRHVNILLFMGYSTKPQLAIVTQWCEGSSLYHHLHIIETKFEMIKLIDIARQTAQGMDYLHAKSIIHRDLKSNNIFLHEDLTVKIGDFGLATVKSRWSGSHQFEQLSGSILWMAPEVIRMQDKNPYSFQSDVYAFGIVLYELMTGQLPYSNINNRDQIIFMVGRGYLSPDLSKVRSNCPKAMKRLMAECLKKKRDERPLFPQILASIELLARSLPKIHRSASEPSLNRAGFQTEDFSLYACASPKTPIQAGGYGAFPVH

DMPK = target: T5, DMPK (Homo sapiens, UniProt Q09013); test: Inhibition specificity, DMPK; type: biochemical; conditions: 5000 nM, average of two tests; read-out: Average Inhibition Rate (%) DMPK
T5 construct: purchased INVITROGEN
T5 sequence (Q09013 whole entry, species assumed): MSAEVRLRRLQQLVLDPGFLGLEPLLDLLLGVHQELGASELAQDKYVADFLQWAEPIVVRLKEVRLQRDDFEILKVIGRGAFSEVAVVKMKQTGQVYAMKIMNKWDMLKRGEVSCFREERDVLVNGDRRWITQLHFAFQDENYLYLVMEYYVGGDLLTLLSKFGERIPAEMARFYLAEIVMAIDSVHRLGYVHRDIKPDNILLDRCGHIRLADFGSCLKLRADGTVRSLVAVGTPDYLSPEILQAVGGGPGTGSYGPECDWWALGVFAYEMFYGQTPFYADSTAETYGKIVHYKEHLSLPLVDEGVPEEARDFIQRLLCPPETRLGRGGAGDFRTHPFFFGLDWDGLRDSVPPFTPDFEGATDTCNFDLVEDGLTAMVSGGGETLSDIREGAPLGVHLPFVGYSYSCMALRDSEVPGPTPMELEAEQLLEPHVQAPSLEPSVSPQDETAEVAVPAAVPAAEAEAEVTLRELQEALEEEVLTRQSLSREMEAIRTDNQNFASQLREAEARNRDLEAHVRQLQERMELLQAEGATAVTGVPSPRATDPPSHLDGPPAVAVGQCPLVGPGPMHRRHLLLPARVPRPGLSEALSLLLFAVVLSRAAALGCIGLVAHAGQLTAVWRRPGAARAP

EGFR = EGFR (Homo sapiens, UniProt P00533); test: Inhibition specificity, EGFR; type: biochemical; conditions: 5000 nM, average of two tests; read-out: Average Inhibition Rate (%) EGFR
FGFR2 = target: T6, FGFR2 (Homo sapiens, UniProt P21802); test: Inhibition specificity, FGFR2; type: biochemical; conditions: 5000 nM, average of two tests; read-out: Average Inhibition Rate (%) FGFR2
T6 construct: purchased CARNA
T6 sequence (P21802 22-821, species assumed): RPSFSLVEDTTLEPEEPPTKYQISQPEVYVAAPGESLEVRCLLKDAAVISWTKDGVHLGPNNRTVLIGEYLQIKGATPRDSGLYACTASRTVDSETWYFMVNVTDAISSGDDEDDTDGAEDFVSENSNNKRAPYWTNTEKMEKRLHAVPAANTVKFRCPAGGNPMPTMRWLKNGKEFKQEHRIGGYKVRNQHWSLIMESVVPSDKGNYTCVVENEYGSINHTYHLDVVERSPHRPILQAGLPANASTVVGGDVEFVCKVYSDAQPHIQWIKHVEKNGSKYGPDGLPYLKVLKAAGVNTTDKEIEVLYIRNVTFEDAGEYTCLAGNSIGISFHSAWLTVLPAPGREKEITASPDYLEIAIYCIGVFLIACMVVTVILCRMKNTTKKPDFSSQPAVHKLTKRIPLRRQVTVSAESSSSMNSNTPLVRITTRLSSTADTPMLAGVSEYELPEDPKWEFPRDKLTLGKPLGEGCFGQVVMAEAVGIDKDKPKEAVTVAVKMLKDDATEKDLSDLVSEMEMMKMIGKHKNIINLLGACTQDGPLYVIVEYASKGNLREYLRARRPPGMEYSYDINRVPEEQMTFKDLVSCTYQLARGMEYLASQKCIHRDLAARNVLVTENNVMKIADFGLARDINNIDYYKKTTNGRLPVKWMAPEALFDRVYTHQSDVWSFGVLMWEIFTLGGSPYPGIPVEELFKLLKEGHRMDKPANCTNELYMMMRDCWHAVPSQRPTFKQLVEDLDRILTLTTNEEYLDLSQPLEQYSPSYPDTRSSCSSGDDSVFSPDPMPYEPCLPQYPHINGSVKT

KDR (VEGFR2) = target: T7, KDR (VEGFR2) (Homo sapiens, UniProt P35968); test: Inhibition specificity, KDR; type: biochemical; conditions: 5000 nM, average of two tests; for inhibition at 5 µM: read-out: Average Inhibition Rate (%) KDR
T7 construct: purchased Invitrogen
T7 sequence (P35968 20-1356, species assumed): as the sequence (P35968 20-1356) above

KIT = target: T8, KIT (Homo sapiens, UniProt P10721); test: Inhibition specificity, KIT; type: biochemical; conditions: 5000 nM, average of two tests; read-out: Average Inhibition Rate (%) KIT
T8 construct: purchased INVITROGEN

MEK1 = target: T9, MEK1 (Homo sapiens, UniProt Q02750); test: Inhibition specificity, MEK1; type: biochemical; conditions: 5000 nM, average of two tests; read-out: Average Inhibition Rate (%) MEK1
T9 construct: purchased UPSTATE
T9 sequence (Q02750 whole entry, species assumed): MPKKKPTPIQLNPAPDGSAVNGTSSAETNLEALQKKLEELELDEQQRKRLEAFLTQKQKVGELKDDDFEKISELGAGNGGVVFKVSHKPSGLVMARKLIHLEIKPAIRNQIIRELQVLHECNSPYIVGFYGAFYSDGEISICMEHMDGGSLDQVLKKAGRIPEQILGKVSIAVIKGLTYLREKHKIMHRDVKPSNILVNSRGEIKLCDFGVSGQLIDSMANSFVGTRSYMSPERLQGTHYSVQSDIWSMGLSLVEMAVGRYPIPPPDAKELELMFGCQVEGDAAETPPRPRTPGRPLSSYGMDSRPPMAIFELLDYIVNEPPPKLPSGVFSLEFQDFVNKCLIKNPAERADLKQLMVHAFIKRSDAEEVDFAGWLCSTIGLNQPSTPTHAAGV

MET = target: T10, MET (Homo sapiens, UniProt P08581); test: Inhibition specificity, MET; type: biochemical; conditions: 5000 nM, average of two tests; read-out: Average Inhibition Rate (%) MET
T10 construct: purchased INVITROGEN

P38-α = target: T11, P38-α (Homo sapiens, UniProt Q16539); test: Inhibition specificity, P38-α; type: biochemical; conditions: 5000 nM, average of two tests; read-out: Average Inhibition Rate (%) P38-α
T11 construct: purchased AMPHORA

PDGFR-β = target: T12, PDGFR-β (Homo sapiens, UniProt P09619); test: Inhibition specificity, PDGFR-β; type: biochemical; conditions: 5000 nM, average of two tests; read-out: Average Inhibition Rate (%) PDGFR-β
T12 construct: purchased Upstate

ROCK1 = target: T13, ROCK1 (Homo sapiens, UniProt Q13464); test: Inhibition specificity, ROCK1; type: biochemical; conditions: 5000 nM, average of two tests; read-out: Average Inhibition Rate (%) ROCK1
T13 construct: purchased CARNA

SRC = target: T14, SRC (Homo sapiens, UniProt P12931); test: Inhibition specificity, SRC; type: biochemical; conditions: 5000 nM, average of two tests; read-out: Average Inhibition Rate (%) SRC
T14 construct: purchased INVITROGEN
T14 sequence (P12931 whole entry, species assumed): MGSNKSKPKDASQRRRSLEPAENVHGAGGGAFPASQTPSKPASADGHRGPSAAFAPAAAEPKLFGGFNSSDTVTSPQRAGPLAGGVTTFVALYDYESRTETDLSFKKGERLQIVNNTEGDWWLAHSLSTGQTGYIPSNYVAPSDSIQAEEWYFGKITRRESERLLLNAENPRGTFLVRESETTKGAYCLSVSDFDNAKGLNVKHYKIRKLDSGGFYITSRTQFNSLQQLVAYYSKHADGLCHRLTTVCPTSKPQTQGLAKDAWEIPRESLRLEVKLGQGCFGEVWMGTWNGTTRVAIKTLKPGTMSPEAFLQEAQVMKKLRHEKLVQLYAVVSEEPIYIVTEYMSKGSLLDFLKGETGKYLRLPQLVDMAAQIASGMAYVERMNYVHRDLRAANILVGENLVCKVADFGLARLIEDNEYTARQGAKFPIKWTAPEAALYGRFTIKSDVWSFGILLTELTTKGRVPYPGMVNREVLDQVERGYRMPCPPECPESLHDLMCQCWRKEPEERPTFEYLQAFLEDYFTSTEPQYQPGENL

inhibition of VEGFR2 (in words, FIG. 8) (VEGFR2)	inhibition activity on KDR (in words) (VEGFR2 (KDR))	IC50 (VEGFR2 (KDR))	Inhibition Rate on KDR (%) (VEGFR2 (KDR); concentration 0.0002823 (uM))	Inhibition Rate on KDR (%) (VEGFR2 (KDR); concentration 0.0008468 (uM))	Inhibition Rate on KDR (%) (VEGFR2 (KDR); concentration 0.0025403 (uM))	Inhibition Rate on KDR (%) (VEGFR2 (KDR); concentration 0.0076208 (uM))	Inhibition Rate on KDR (%) (VEGFR2 (KDR); concentration 0.0228624 (uM))	Inhibition Rate on KDR (%) (VEGFR2 (KDR); concentration 0.0685871 (uM))	Inhibition Rate on KDR (%) (VEGFR2 (KDR); concentration 0.2057613 (uM))	Inhibition Rate on KDR (%) (VEGFR2 (KDR); concentration 0.6172840 (uM))	Inhibition Rate on KDR (%) (VEGFR2 (KDR); concentration 1.8518519 (uM))	SMILES	inhibition at 0.1 µM [1]	inhibition at 1 µM [1]	inhibition at 5 µM [1]	inhibition at 10 µM [1]	inhibition at 20 µM [1]	inhibition at 40 µM [1]	inhibition at 100 µM [1]	inhibition effect on the vessel development of the danio rerio (in words) [1]	also measured
can inhibit VEGFR2	good inhibition activity	0.0277 µM	2.75%	0.61%	7.27%	20.59%	45.65%	71.24%	84.37%	91.13%	94.18%	Nc1cc(Oc2ccc3c(C(=O)Nc4cccc(C(F)(F)F)c4)cccc3n2)ncn1 [Compound 2-1]	10%	50%	100%	100%	100%	100%	100%	have inhibition effect on the vessel development of the danio rerio	Inhibition Rate on KDR (%) (VEGFR2 (KDR); concentration 5.5555556 (uM)): 95.30%; Inhibition Rate on KDR (%) (VEGFR2 (KDR); concentration 16.6666667 (uM)): 94.60%; Inhibition Rate on KDR (%) (VEGFR2 (KDR); concentration 50 (uM)): 94.91%; Hill KDR (VEGFR2 (KDR)): 1.066; inhibition at 5 µM (AURORA-B): ~31%; inhibition at 5 µM (BRAF): 4.11%; inhibition at 5 µM (DMPK): 1.53%; inhibition at 5 µM (EGFR): 5.35%; inhibition at 5 µM (FGFR2): ~36%; inhibition at 5 µM (KDR (VEGFR2)): > 97%; inhibition at 5 µM (KIT): ~72%; inhibition at 5 µM (MEK1): 1.06%; inhibition at 5 µM (MET): 3.83%; inhibition at 5 µM (P38-α): 16.9%; inhibition at 5 µM (PDGFR-β): ~71%; inhibition at 5 µM (ROCK1): 2.63%; inhibition at 5 µM (SRC): ~21%
can inhibit VEGFR2	good inhibition activity	0.00731 µM	5.09%	11.82%	25.59%	49.36%	78.25%	90.14%	92.95%	94.82%	97.30%	Nc1nccc(Oc2ccc3c(C(=O)Nc4cccc(C(F)(F)F)c4)cccc3n2)n1 [Compound 2-2]	50%	100%	100%	100%	100%	100%	100%	have inhibition effect on the vessel development of the danio rerio	Inhibition Rate on KDR (%) (VEGFR2 (KDR); concentration 5.5555556 (uM)): 96.50%; Inhibition Rate on KDR (%) (VEGFR2 (KDR); concentration 16.6666667 (uM)): 94.47%; Inhibition Rate on KDR (%) (VEGFR2 (KDR); concentration 50 (uM)): 95.99%; Hill KDR (VEGFR2 (KDR)): 1.175; inhibition at 5 µM (AURORA-B): 13.6%; inhibition at 5 µM (BRAF): 37.4%; inhibition at 5 µM (DMPK): 4.5%; inhibition at 5 µM (EGFR): -0.625%; inhibition at 5 µM (FGFR2): > 61%; Average Inhibition Rate (%) KDR (KDR (VEGFR2); 5 µM): 100.1%; inhibition at 5 µM (KDR (VEGFR2)): 100%; inhibition at 5 µM (KIT): ~92%; inhibition at 5 µM (MEK1): 4.96%; inhibition at 5 µM (MET): 2.46%; inhibition at 5 µM (P38-α): ~80%; inhibition at 5 µM (PDGFR-β): ~97%; inhibition at 5 µM (ROCK1): 1.39%; inhibition at 5 µM (SRC): ~65%
